Measurements taken from US20100311036A1, “Methods for Augmentation of Cell Cryopreservation” (UNIVERSITY OF SOUTH CAROLINA, priority 2009, published 2010).

Tests used:
R1 mouse ES cells [1] = assay: attachment efficiency (1 day viability) post cryopreservation; assay type: cell-based; details: post ultrafast vitrification in quartz microcapillary; 2 M PROH and/or 0.5 M extracellular trehalose; day 1, relative to non-frozen control
Method: (§1) A novel ultrafast cooling (cooling rate >2×10^5° C./min) technique for ice-free cryopreservation (i.e., ultrafast vitrification) of mouse ES cells has been recently developed using quartz microcapillaries (180 μm in inner diameter and 10 μm in wall thickness in the working part). A comparison of the quartz microcapillary and the traditional French type plastic straw used for cell vitrification is given in FIG. 2. […]
(§2) The immediate cell viability post cryopreservation represented by membrane integrity was assessed using the standard live/dead assay kit of two fluorescent probes: calcein AM and ethidium homodimer (Invitrogen, Carlsbad, Calif.). Cells that excluded ethidium homodimer and retained the fluorescent calcein were counted as being viable. To check cell viability more than one day post cryopreservation, cell attachment evaluated at day 1 and proliferation/growth evaluated over a three-day observation period were also studied. […] The number of cells in at least 20 randomly selected representative fields under a 10× objective was counted every day for all the samples. Proliferation was assessed by normalizing the number of cells at day 3 and day 2 to that at day 1. Attachment efficiency (i.e., viability at day 1) was calculated as the ratio of the number of cells of a cryopreserved sample to that of the control non-frozen sample at day 1. […]

R1 mouse ES cells [2] = assay: immediate cell viability post cryopreservation (membrane integrity, live/dead assay); assay type: cell-based; details: post ultrafast vitrification in quartz microcapillary; 2 M PROH and/or 0.5 M extracellular trehalose; within 3 hr at day 0
Method: as §1, §2

CC(O)CO (stereo not shown) [1,2-propanediol]
1 day viability (attachment efficiency) (R1 mouse ES cells [1]): ~12%
immediate cell viability (R1 mouse ES cells [2]): ~20%

OC[C@H]1O[C@H](O[C@H]2O[C@H](CO)[C@@H](O)[C@H](O)[C@H]2O)[C@H](O)[C@@H](O)[C@@H]1O [trehalose]
1 day viability (attachment efficiency) (R1 mouse ES cells [1]): < 2%
immediate cell viability (R1 mouse ES cells [2]): about 65%
